Assay results as given in US5965106A, “In vivo binding pair pretargeting” (PerImmune Holdings, Inc., priority 1995, dated 1999).

Columns and labels:
[1] = tested on: rhDHFR; assay: Inhibition of rhDHFR by MTX and DTPA-MTX (dihydrofolate reduction, A340); type: biochemical, human; details: 1×10^-8 M and 5×10^-9 M inhibitor concentration, 22° C., pH 7.5
Method: Dihydrofolate reductase concentrations of 10^-7 -10^-9 M are easily assayed by monitoring the time dependent decrease in A340 caused by the reduction of dihydrofolate and the oxidation of the cofactor nicotinadenine dinucleotide phosphate (NADPH). The assay is performed at 22° C. (room temperature) in 50 mM Tris, pH 7.5 and 60 μM NADPH and initiated by adding dihydrofolate to 50 μM. One enzyme unit is equivalent to the amount of enzyme required to reduce 1 μmole of dihydrofolate to 1 μmole tetrahydrofolate in 1 min. at 22° C. and can be quantitated using an extinction coefficient of 12,300 M^-1 cm^-1.
The inhibition rate of DHFR by MTX and its derivatives is determined by the decrease in the conversion of dihydrofolate to tetrahydrofolate. […] Derivatives of methotrexate are evaluated by comparing inhibition rates to the inhibition rate of MTX at equivalent concentrations.
The effects of modifying methotrexate with DPTA were unknown and required a comparison of the activity of equimolar concentrations of methotrexate and DTPA-MTX. […] The inhibition of rhDHFR by MTX and DTPA-MTX were then measured under the assay conditions mentioned earlier and compared.

[2] = tested on: 16.88 bound rhDHFR; assay: Inhibition of DHFR bound in an antibody-DHFR complex by MTX and DTPA-MTX, versus native rhDHFR; details: 16.88-DHFR titrated to activity of native rhDHFR
[3] = tested on: wild-type recombinant human dihydrofolate reductase (rhDHFR); details: noncovalent binding; cited from earlier work
[4] = Whole body clearance from athymic mice; type: in vivo, athymic nu/nu mice; details: 50 uCi, lateral tail vein, 0.5-24 hours
Method: Clearance of the ^111 In-DTPA-MTX at a rate similar to that of ^111 In-DTPA would indicate that rapid body clearance of the portion of the conjugate not bound in tumor tissue by antibody-DHFR may be expected. Such rapid clearance would ensure that nearly all the unbound radionuclide would decay outside the body.
Three athymic nu/nu mice were injected via the lateral tail vein with 50 uCi ^111 In-DTPA-MTX in 0.5 mL 10% normal mouse serum in phosphate buffered normal saline. A second group of three animals received 50 uCi ^111 In-DTPA by the same route. All animal were examined for whole body retention of In-111 in a Capintec dose calibrator at 0.5, 1, 2, 3, 4, and 24 hours after injection.

[5] = Biodistribution and clearance in rabbits; type: in vivo, New Zealand white rabbit; details: rabbit
Method: In order to compare the biodistribution and clearance of ^111 In-DTPA-MTX with that of ^111 In-DTPA in the New Zealand white rabbit, approximately 140-190 μg and 120 μCi of each agent is administered to three animals each by intravenous injection in the central ear […]. One animal of each group is sacrificed at 1, 4 and 24 hours after injection.

[6] = in vivo; cited from earlier work
[7] = Biodistribution and clearance in nude mice; type: in vivo, nude mouse
Method: In order to compare the biodistribution and clearance of ^111 In-DTPA-MTX with that of ^111 In-DTPA in the nude mouse, ^111 In-DTPA-MTX is administered at a dose of 9 μg and 8 μCi and ^111 In-DTPA is administered at a dose of 9 μg and 7 μCi by intravenous injection into the lateral tail vein. Animals are sacrificed a 1, 2, 4 and 24 hours after injection in groups of three animals per time point. […] In addition, there is low uptake of the MTX conjugate in the liver which is not seen with the labeled DTPA.

[8] = tested on: rhDHFR; assay: Stability of conjugated enzyme: percent DHFR activity remaining; type: physicochemical, human
Method: A 10-fold molar excess of the photoaffinity analog was mixed with the enzyme, and the volume adjusted to a protein concentration of 1 mg/ml using 10 mM Tris-HCl buffer (pH 7.5). The mixture was kept in ice at a 10 cm distance from the light source while photoactivation was carried out for 5 minutes with occasional stirring. An aliquot was assayed for DHFR activity before and after photoactivation. The NADP^+ -linked enzyme was purified by gel-filtration using 10 mM sodium phosphate buffer, pH 7.2, containing 20 mM NaCl. Fractions were assayed for DHFR activity before they were pooled for protein estimation (using Pierce BCA reagent) and determination of incorporation of NADP^+ moieties per enzyme molecule.
[…] Percent stability was calculated by comparing with a sample kept at 4° C.

## CN(Cc1cnc2nc(N)nc(N)c2n1)c1ccc(C(=O)N[C@@H](CCC(=O)NNC(=O)CN(CCN(CCN(CC(=O)O)CC(=O)O)CC(=O)O)CC(=O)O)C(=O)O)cc1 [DTPA-MTX]
[1]
  inhibitory effect on dihydrofolate reduction compared with MTX: virtually identical to MTX inhibition
[2]
  inhibition of/binding to 16.88 bound rhDHFR compared with equivalent activity of native rhDHFR: confirmed the methotrexate data

## NC(=O)C1=CN([C@@H]2O[C@H](COP(=O)(O)OP(=O)(O)OC[C@H]3O[C@@H](n4cnc5c(N)ncnc54)[C@H](OP(=O)(O)O)[C@@H]3O)[C@@H](O)[C@H]2O)C=CC1 [NADPH, nicotinadenine dinucleotide phosphate]
[3]
  protection of rhDHFR from thermal denaturation: capable of protecting

## NC(=O)c1ccc[n+]([C@@H]2O[C@H](COP(=O)([O-])OP(=O)(O)OC[C@H]3O[C@@H](n4cnc5c(N)ncnc54)[C@H](OP(=O)(O)O)[C@@H]3O)[C@@H](O)[C@H]2O)c1 [NADP]
[3]
  protection of rhDHFR from thermal denaturation: capable of protecting

## O=C([O-])CN(CCN(CC(=O)[O-])CC(=O)[O-])CCN(CC(=O)[O-])CC(=O)[O-].[111In+3].[H+].[H+] [^111 In-DTPA]
[4]
  whole body clearance: clear from the mice at similar rates
[5]; i.v.
  kidney activity levels: Low activity levels
[5]; i.v. 140-190 μg, 120 μCi
  urine activity (clearance via urine): high urine activity levels
[6]
  clearance from the circulation: clear rapidly from the circulation
  retention in normal tissues: little retention in normal tissues
[7]; 1 hour post injection, i.v., 9 μg
  injected dose per gram (ml) remaining in the serum: less than 0.2%
[7]; nude mouse, all time points 1-24 hours
  kidney activity (clearance via urine): activity in the kidney at all time points
[7]; nude mouse, i.v.
  liver uptake: not seen

B1: ANPAP-NADP^+ -rhDHFR: DHFR stabilized through covalent conjugation with a photoaffinity analog of NADP^+ (ANPAP-NADP) followed by photoactivation (conjugate, UniProt P00374 1-187, looked up)
Dihydrofolate reductase: MVGSLNCIVAVSQNMGIGKNGDLPWPPLRNEFRYFQRMTTTSSVEGKQNLVIMGKKTWFSIPEKNRPLKGRINLVLSRELKEPPQGAHFLSRSLDDALKLTEQPELANKVDMVWIVGGSSVYKEAMNHPGHLKLFVTRIMQDFESDTFFPEIDLEKYKLLPEYPGVLSDVQEEKGIKYKFEVYEKND
modifications: photo-crosslinked ANPAP-NADP+ analog
[8]; 0 minutes, 37° C.
  Stability: percent enzyme activity remaining after incubation: 100%
[8]; 60 minutes, 37° C.
  Stability: percent enzyme activity remaining after incubation: 82%
[8]; 120 minutes, 37° C.
  Stability: percent enzyme activity remaining after incubation: 78%
[8]; 180 minutes, 37° C.
  Stability: percent enzyme activity remaining after incubation: 78%
[8]; 1080 minutes, 23° C.
  Stability: percent enzyme activity remaining after incubation: 67%
[8]; photoactivation time 5 minutes
  Percent remaining activity following photoactivation: 100%

B2: rhDHFR: recombinant human dihydrofolate reductase (protein, UniProt P00374 1-187, looked up)
Dihydrofolate reductase: B1 Dihydrofolate reductase
[8]; 0 minutes, 37° C.
  Stability: percent enzyme activity remaining after incubation: 100%
[8]; 30 minutes, 37° C.
  Stability: percent enzyme activity remaining after incubation: 18%
[8]; 60 minutes, 37° C.
  Stability: percent enzyme activity remaining after incubation: 10%
